Test results from article PMC9760738, “Pharmacokinetics, absorption, distribution, metabolism and excretion of the MEK inhibitor zapnometinib in rats” (Frontiers in Pharmacology, 2022).

What was measured:
[1] = Metabolite profiling of pooled feces extracts by radio-HPLC (Group 2); format: in vivo, rat; conditions: for Proportion of feces sample radioactivity: 24-48 h
Method: Metabolite profiling was performed by HPLC analysis according to the company’s SOP of plasma (Group 3), urine (Group 2) and feces (Group 2) samples. Briefly, for metabolite profiling and identification, radioactivity (cpm) was measured in HPLC eluent fractions that had previously been collected at 12 s intervals for the duration of the run (65 min) into 96-well Deep Well LumaPlates and dried in a centrifugal evaporator. A Microbeta2 scintillation counter was used to count each plate, with wells simultaneously counted for 2 min, after an initial 5 min delay. A subsample of plasma was analyzed (ca 2 ml) taken from individual animals to provide representative samples, for each sex, at 2, 8 and 168 h post dose (n = 6). Equal proportions of the total urine weight voided from Group 2 animals was pooled to provide representative samples for each sex at 0–6 h, 6–24 h and 24–48 h post dose (n = 6). Equal proportions of the total feces homogenate generated from the samples voided by the three rats (Group 2) were pooled to provide representative samples for each sex at 0–24 and 24–48 h post dose ([…]). Sample preparation was carried out due to the company’s SOPs (see Supplementary Methods). The extractability was ≥95.0% (95.0–100%) TRR (Total Radioactive Residue) for plasma and ≥88.3% (88.3%–91.3%) TRR for feces. As reference, a standard solution of zapnometinib (0.1 mg/ml in acetonitrile) was used. To assess HPLC method suitability, a column recovery was assessed on each representative sample (one per matrix). The recovery of radioactivity from the HPLC column was determined by collecting the column eluent, following an injection of a representative sample (one per matrix), and determining the radioactive content by submitting aliquots for LSC analysis. The results of these analyses were between 93.8%–105.1% column recoveries.
Next, radioactive metabolic components of zapnometinib in urine, plasma and feces extracts were isolated and profiled. The components were quantified by fraction collection/scintillation analysis, as appropriate to the radioactivity concentrations. Mass spectroscopy was used to propose identities of the major circulatory and excreted metabolites, and to correlate the metabolites detected in the different matrices. Components identified by LC-MS/MS were related to the quantified HPLC analysis by comparison of related radiochromatograms and comparison of elution order. Representative HPLC radiochromatograms of pooled feces extracts collected during 0–24 and 24–48 h post dose from male and female rats (which reveal the main metabolites) were qualitatively similar with some minor sex differences (Figure 3). […]
times with the following solvents following the same procedure: Extract 2 – Acetonitrile/methanol 4:1 (v/v); Extract 3 – Acetonitrile/Water 1:1 (v/v). Duplicate weighed aliquots of each supernatant (ca 0.1 mL) were mixed directly with Ultima Gold scintillation cocktail for measurement of radioactivity concentrations. The extracted residue was allowed to air dry and the total weight was recorded. Duplicate weighed portions (ca 0.05g) were taken for radioassay after oxidation. The extracts were combined and concentrated under a constant stream of nitrogen gas to near dryness and reconstituted in acetonitrile/0.1% aqueous formic acid, 1:1 (v/v) by vortex mixing, sonication and centrifugation at 10000 × g for 5 min at 4°C.
The concentrates were weighed, and duplicate weighed aliquots (0.025 – 0.05 mL) taken for measurement of radioactivity to calculate recovery following concentration. An aliquot of each concentrated extract was injected into the HPLC. […]
(100 mL) in purified water (600 mL) and methanol (300 mL). After measurement of total sample weight (as appropriate), replicate portions of diluted dose solutions (ca 0.1 mL), plasma (ca 0.05 – 0.25 mL), urine (ca 0.05 – 0.25 mL), expired air trap solution (ca 1 mL) and cage wash (ca 1 mL) were mixed directly with Ultima Gold scintillation cocktail (5 mL; 15 mL for […]

[2] = Plasma total radioactivity pharmacokinetics after single oral 30 mg/kg [14C]-zapnometinib, Sprague-Dawley rats (Group 1); format: in vivo, rat
Method: Oral doses of [^14C]-zapnometinib were administered as a suspension in 5% DMSO (v/v), 30% PEG 400 (v/v) and 7.5% (w/v) Captisol in water at a dose level of 30 mg/kg to male and female rats by gastric intubation at a dose volume of 4 ml/kg body weight. The selected dose level (30 mg/kg) was below the no observed adverse effect level (100 mg/kg), the formulation was selected based on data obtained in other nonclinical studies. The radioactive dose administered to each animal was quantified from the weight (excretion studies only) or volume of dosing formulation given, and its mean measured radioactivity concentration. The weight of test compound administered to each rat was determined from the radioactive dose administered and the specific activity of the test material.
After single oral doses of [^14C]-zapnometinib to three male and three female rats, a blood sample (ca 220 µL) was taken from each animal, via the jugular or tail vein at each of the following time points: 0.25, 0.5, 1, 2, 4, 8, 24, 48, 72, 96, 120 and 168 h after dose administration. All blood samples were delivered into K2EDTA tubes and centrifuged (ca 2000 ×g at 4°C for 10 min) to obtain plasma; blood cells were discarded. After collection of the terminal sample, rats were killed by cervical dislocation and the carcasses discarded.
Radioactivity was measured by liquid scintillation analysis using Wallac® 1409 automatic liquid scintillation counters. Samples were prepared according to the company’s SOP (see Supplementary Methods). Briefly, replicate weighed samples were mixed with Ultima Gold™ scintillation cocktail (PerkinElmer, United States) for the measurement of radioactivity. Radioactivity in amounts less than twice that of the background concentration in the sample under investigation was below the limit of accurate quantification (BLQ).
Weight, volume, and radioactivity concentration (liquid scintillation analysis) results relating to the analysis of biological samples generated during this study were acquired and processed using DEBRA, a Laboratory Information Management System (v 5.5.4). Pharmacokinetic parameters were calculated using the computer program Phoenix™ WinNonlin version 8.3 (Pharsight Corporation, United States). Areas under the mean plasma radioactivity concentration-time curves up to the time of the last quantifiable sample (AUC0-t) were estimated by the linear trapezoidal rule. Areas under the mean plasma radioactivity concentration-time curves to infinite time (AUC0-inf) were calculated using the expression: AUC0-inf = AUC0-t + Ct/λz, where Ct is the last measurable concentration and λz is the elimination rate constant estimated using log-linear regression during the terminal elimination phase. Statistical evaluation was limited to basic expressions of variation such as means and standard deviation.

O=C(O)c1ccc(F)c(F)c1Nc1ccc(I)cc1Cl [zapnometinib, 2-(2-Chloro-4-iodophenylamino)-3,4-difluorobenzoic acid]
Amount in pooled feces extracts ([1]; 0-24 hours, female rats): 19.87 % Dose | Amount in pooled feces extracts ([1]; 0-24 hours, male rats): 19.28 % Dose | Proportion of feces sample radioactivity ([1]; female rats): 28.5 % sample radioactivity | Proportion of feces sample radioactivity ([1]; male rats): 21.5 % sample radioactivity | Amount in pooled feces extracts ([1]; 24-48 hours, female rats): 6.30 % Dose | Amount in pooled feces extracts ([1]; 24-48 hours, male rats): 2.15 % Dose | Amount in pooled feces extracts ([1]; Total (0-48 hours), female rats): 26.17 % Dose | Mean plasma radioactivity concentration ([2]; 48 h post dose, females): 0.650 μg equivs/ml | Mean plasma radioactivity concentration ([2]; 48 h post dose, males): 0.724 μg equivs/ml | Mean plasma radioactivity concentration ([2]; 168 h post dose, females): 0.049 μg equivs/ml | Mean plasma radioactivity concentration ([2]; 168 h post dose, males): 0.054 μg equivs/ml | Plasma radioactivity at 168 h as % of Cmax ([2]; females): ~0.04% | Plasma radioactivity at 168 h as % of Cmax ([2]; males): ~0.06% | AUC0-t females versus males ([2]; total plasma radioactivity): 1.4 fold | Cmax females versus males ([2]; total plasma radioactivity): 1.5 fold
